Experimental data taken from US20230085307A1, “PYRIDAZINONE COMPOUND AND HERBICIDE” (NISSAN CHEMICAL CORPORATION, priority 2019, published 2023).

Key:
[1] = system: barnyard grass; experiment: Test Example 3: herbicidal effect by foliage application, Wagner pot (Table 18, symbol H); type: in vivo, barnyard grass (Echinochloa crus-galli); conditions: 320 g/ha
Outline: (§1)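 Plants were sown in alluvial soil held under 0.1–0.5 cm standing water and grown 14 days in a greenhouse at 25–30 °C. An emulsifiable formulation, water-diluted to the set dose, was then sprayed onto the foliage, and effects were scored three weeks later using previously defined criteria.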

[2] = system: Chinese sprangletop; experiment: Test Example 3: herbicidal effect by foliage application, Wagner pot (Table 18, symbol D); type: in vivo, chinese sprangletop (Leptochloa chinensis); conditions: 320 g/ha
Outline: as §1

[3] = system: rice flat sedge; experiment: Test Example 3: herbicidal effect by foliage application, Wagner pot (Table 18, symbol E); type: in vivo, rice flat sedge (Cyperus iria); conditions: 320 g/ha
Outline: as §1

[4] = system: southern crabgrass; experiment: Test Example 4: herbicidal effect by soil treatment (Table 19, symbol F); type: in vivo, southern crabgrass (Digitaria ciliaris)
Outline: (§2)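 In this soil treatment, the formulated compound reached the seeds only through the soil: seeds were buried about 1.5 cm deep in sterilized diluvial soil, then the diluted emulsion was sprayed over the surface. After three weeks at 25° C. to 30° C. in a greenhouse, effects were graded on criteria from an earlier test.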

[5] = system: green foxtail; experiment: Test Example 4: herbicidal effect by soil treatment (Table 19, symbol G); type: in vivo, green foxtail (Setaria viridis)
Outline: as §2

[6] = system: barnyard grass; experiment: Test Example 4: herbicidal effect by soil treatment (Table 19, symbol H); type: in vivo, barnyard grass (Echinochloa crus-galli)
Outline: as §2

[7] = system: wild oat; experiment: Test Example 4: herbicidal effect by soil treatment (Table 19, symbol I); type: in vivo, wild oat (Avena fatua)
Outline: as §2

[8] = system: blackgrass; experiment: Test Example 4: herbicidal effect by soil treatment (Table 19, symbol J); type: in vivo, blackgrass (Alopecurus myosuroides)
Outline: as §2

[9] = system: Italian ryegrass; experiment: Test Example 4: herbicidal effect by soil treatment (Table 19, symbol K); type: in vivo, Italian ryegrass (Lolium multiflorum)
Outline: as §2

[10] = system: windgrass; experiment: Test Example 4: herbicidal effect by soil treatment (Table 19, symbol L); type: in vivo, windgrass (Apera spica-venti)
Outline: as §2

[11] = system: velvetleaf; experiment: Test Example 4: herbicidal effect by soil treatment (Table 19, symbol M); type: in vivo, velvetleaf (Abutilon theophrasti)
Outline: as §2

[12] = system: redroot pigweed; experiment: Test Example 4: herbicidal effect by soil treatment (Table 19, symbol N); type: in vivo, redroot pigweed (Amaranthus retroflexus)
Outline: as §2

[13] = system: lambsquarters; experiment: Test Example 4: herbicidal effect by soil treatment (Table 19, symbol O); type: in vivo, lambsquarters (Chenopodium album)
Outline: as §2

[14] = system: chickweed; experiment: Test Example 4: herbicidal effect by soil treatment (Table 19, symbol P); type: in vivo, common chickweed (Stellaria media)
Outline: as §2

[15] = system: false cleavers; experiment: Test Example 4: herbicidal effect by soil treatment (Table 19, symbol Q); type: in vivo, false cleavers (Galium spurium)
Outline: as §2

[16] = system: persian speedwell; experiment: Test Example 4: herbicidal effect by soil treatment (Table 19, symbol R); type: in vivo, Persian speedwell (Veronica persica)
Outline: as §2

[17] = system: southern crabgrass; experiment: Test Example 5: herbicidal effect by foliage application, plastic box (Table 20, symbol F); type: in vivo, southern crabgrass (Digitaria ciliaris); conditions: foliage application
Outline: (§3)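 Plants were sown into sterilized diluvial soil under about 1.5 cm cover and kept in a greenhouse at 25° C. to 30° C. Fourteen days on, foliage received an even spray of the diluted emulsion. Herbicidal or crop effect was judged three weeks afterwards.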

[18] = system: green foxtail; experiment: Test Example 5: herbicidal effect by foliage application, plastic box (Table 20, symbol G); type: in vivo, green foxtail (Setaria viridis); conditions: foliage application
Outline: as §3

[19] = system: barnyard grass; experiment: Test Example 5: herbicidal effect by foliage application, plastic box (Table 20, symbol H); type: in vivo, barnyard grass (Echinochloa crus-galli); conditions: foliage application
Outline: as §3

[20] = system: wild oat; experiment: Test Example 5: herbicidal effect by foliage application, plastic box (Table 20, symbol I); type: in vivo, wild oat (Avena fatua); conditions: foliage application
Outline: as §3

[21] = system: blackgrass; experiment: Test Example 5: herbicidal effect by foliage application, plastic box (Table 20, symbol J); type: in vivo, blackgrass (Alopecurus myosuroides); conditions: foliage application
Outline: as §3

[22] = system: Italian ryegrass; experiment: Test Example 5: herbicidal effect by foliage application, plastic box (Table 20, symbol K); type: in vivo, Italian ryegrass (Lolium multiflorum); conditions: foliage application
Outline: as §3

[23] = system: windgrass; experiment: Test Example 5: herbicidal effect by foliage application, plastic box (Table 20, symbol L); type: in vivo, windgrass (Apera spica-venti); conditions: foliage application
Outline: as §3

[24] = system: velvetleaf; experiment: Test Example 5: herbicidal effect by foliage application, plastic box (Table 20, symbol M); type: in vivo, velvetleaf (Abutilon theophrasti); conditions: foliage application
Outline: as §3

[25] = system: redroot pigweed; experiment: Test Example 5: herbicidal effect by foliage application, plastic box (Table 20, symbol N); type: in vivo, redroot pigweed (Amaranthus retroflexus); conditions: foliage application
Outline: as §3

[26] = system: lambsquarters; experiment: Test Example 5: herbicidal effect by foliage application, plastic box (Table 20, symbol O); type: in vivo, lambsquarters (Chenopodium album); conditions: foliage application
Outline: as §3

[27] = system: chickweed; experiment: Test Example 5: herbicidal effect by foliage application, plastic box (Table 20, symbol P); type: in vivo, common chickweed (Stellaria media); conditions: foliage application
Outline: as §3

[28] = system: false cleavers; experiment: Test Example 5: herbicidal effect by foliage application, plastic box (Table 20, symbol Q); type: in vivo, false cleavers (Galium spurium); conditions: foliage application
Outline: as §3

[29] = system: persian speedwell; experiment: Test Example 5: herbicidal effect by foliage application, plastic box (Table 20, symbol R); type: in vivo, Persian speedwell (Veronica persica); conditions: foliage application
Outline: as §3

[30] = amount of applied herbicide 320 g/ha
[31] = AAH 320 g/ha, three weeks after application
[32] = 320 g/ha, evaluated three weeks after application

With `Cc1nn(C)c(=O)c(-c2c(-c3cccc4c3OCC4)sc3ccccc23)c1O` [1-103] the “herbicidal effect on H (barnyard grass), rating 0-5” value [1] was 3 (Herbicidal rate of 40% or more and less than 70%), the “herbicidal effect on D (Chinese sprangletop), rating 0-5” value [2] was 4 (Herbicidal rate of 70% or more and less than 90%) and the “herbicidal effect on E (rice flat sedge), rating 0-5” value [3] was 3 (Herbicidal rate of 40% or more and less than 70%). For the same molecule, the “herbicidal effect rating, F: southern crabgrass” value [4, 30] was 2 (Herbicidal rate of 20% or more and less than 40%), the “herbicidal effect rating, G: green foxtail” value [5, 30] was 3 (Herbicidal rate of 40% or more and less than 70%) and the “herbicidal effect rating, H: barnyard grass” value [6, 30] was 2 (Herbicidal rate of 20% or more and less than 40%). For the same molecule, the “herbicidal effect rating, I: wild oat” value [7, 30] was 0 (Herbicidal rate of 5% or less (almost no effect)), the “herbicidal effect rating, J: blackgrass” value [8, 30] was 0 (Herbicidal rate of 5% or less (almost no effect)) and the “herbicidal effect rating, K: Italian ryegrass” value [9, 30] was 0 (Herbicidal rate of 5% or less (almost no effect)). The “herbicidal effect rating, L: windgrass” value [10, 30] was 0 (Herbicidal rate of 5% or less (almost no effect)), the “herbicidal effect rating, M: velvetleaf” value [11, 30] was 0 (Herbicidal rate of 5% or less (almost no effect)) and the “herbicidal effect rating, N: redroot pigweed” value [12, 30] was 3 (Herbicidal rate of 40% or more and less than 70%). The “herbicidal effect rating, O: lambsquarters” value [13, 30] was 3 (Herbicidal rate of 40% or more and less than 70%), the “herbicidal effect rating, P: chickweed” value [14, 30] was 1 (Herbicidal rate of 5% or more and less than 20%) and the “herbicidal effect rating, Q: false cleavers” value [15, 30] was 0 (Herbicidal rate of 5% or less (almost no effect)). For the same molecule, the “herbicidal effect rating, R: persian speedwell” value [16, 30] was 2 (Herbicidal rate of 20% or more and less than 40%), the “F: southern crabgrass, herbicidal effect” value [17, 31] was 3 (Herbicidal rate of 40% or more and less than 70%) and the “G: green foxtail, herbicidal effect” value [18, 31] was 3 (Herbicidal rate of 40% or more and less than 70%). For the same molecule, the “H: barnyard grass, herbicidal effect” value [19, 31] was 0 (Herbicidal rate of 5% or less (almost no effect)), the “I: wild oat, herbicidal effect” value [20, 31] was 0 (Herbicidal rate of 5% or less (almost no effect)) and the “J: blackgrass, herbicidal effect” value [21, 31] was 3 (Herbicidal rate of 40% or more and less than 70%). For the same molecule, the “K: Italian ryegrass, herbicidal effect” value [22, 31] was 3 (Herbicidal rate of 40% or more and less than 70%), the “L: windgrass, herbicidal effect” value [23, 31] was 0 (Herbicidal rate of 5% or less (almost no effect)) and the “M: velvetleaf, herbicidal effect” value [24, 31] was 4 (Herbicidal rate of 70% or more and less than 90%). For the same molecule, the “N: redroot pigweed, herbicidal effect” value [25, 31] was 3 (Herbicidal rate of 40% or more and less than 70%), the “O: lambsquarters, herbicidal effect” value [26, 31] was 3 (Herbicidal rate of 40% or more and less than 70%) and the “P: chickweed, herbicidal effect” value [27, 31] was 5 (Herbicidal rate of 90% or more (almost completely withered)). The “Q: false cleavers, herbicidal effect” value [28, 31] was 4 (Herbicidal rate of 70% or more and less than 90%) and the “R: persian speedwell, herbicidal effect” value [29, 31] was 5 (Herbicidal rate of 90% or more (almost completely withered)).
In the case of `CCCC(=O)Oc1c(C)nn(C)c(=O)c1-c1c(-c2ccc(F)cc2)sc2ccc(Cl)cc12` [2-098], the “herbicidal effect on H (barnyard grass), rating 0-5” value [1] is reported as 5 (Herbicidal rate of 90% or more (almost completely withered)), the “herbicidal effect on D (Chinese sprangletop), rating 0-5” value [2] is reported as 4 (Herbicidal rate of 70% or more and less than 90%) and the “herbicidal effect on E (rice flat sedge), rating 0-5” value [3] is reported as 2 (Herbicidal rate of 20% or more and less than 40%). The “herbicidal effect rating, F: southern crabgrass” value ([4]; 320 g/ha) was 3 (Herbicidal rate of 40% or more and less than 70%), the “herbicidal effect rating, G: green foxtail” value ([5]; 320 g/ha) was 0 (Herbicidal rate of 5% or less (almost no effect)) and the “herbicidal effect rating, H: barnyard grass” value ([6]; 320 g/ha) was 1 (Herbicidal rate of 5% or more and less than 20%). For the same molecule, the “herbicidal effect rating, I: wild oat” value ([7]; 320 g/ha) was 2 (Herbicidal rate of 20% or more and less than 40%), the “herbicidal effect rating, J: blackgrass” value ([8]; 320 g/ha) was 0 (Herbicidal rate of 5% or less (almost no effect)) and the “herbicidal effect rating, K: Italian ryegrass” value ([9]; 320 g/ha) was 5 (Herbicidal rate of 90% or more (almost completely withered)). For the same molecule, the “herbicidal effect rating, L: windgrass” value ([10]; 320 g/ha) was 3 (Herbicidal rate of 40% or more and less than 70%), the “herbicidal effect rating, M: velvetleaf” value ([11]; 320 g/ha) was 3 (Herbicidal rate of 40% or more and less than 70%) and the “herbicidal effect rating, N: redroot pigweed” value ([12]; 320 g/ha) was 4 (Herbicidal rate of 70% or more and less than 90%). For the same molecule, the “herbicidal effect rating, O: lambsquarters” value ([13]; 320 g/ha) was 4 (Herbicidal rate of 70% or more and less than 90%), the “herbicidal effect rating, P: chickweed” value ([14]; 320 g/ha) was 4 (Herbicidal rate of 70% or more and less than 90%) and the “herbicidal effect rating, Q: false cleavers” value ([15]; 320 g/ha) was 2 (Herbicidal rate of 20% or more and less than 40%). The “herbicidal effect rating, R: persian speedwell” value ([16]; 320 g/ha) was 4 (Herbicidal rate of 70% or more and less than 90%), the “herbicidal effect on F: southern crabgrass” value [17, 32] was 5 (Herbicidal rate of 90% or more (almost completely withered)) and the “herbicidal effect on G: green foxtail” value [18, 32] was 4 (Herbicidal rate of 70% or more and less than 90%). The “herbicidal effect on H: barnyard grass” value [19, 32] was 4 (Herbicidal rate of 70% or more and less than 90%), the “herbicidal effect on I: wild oat” value [20, 32] was 5 (Herbicidal rate of 90% or more (almost completely withered)) and the “herbicidal effect on J: blackgrass” value [21, 32] was 4 (Herbicidal rate of 70% or more and less than 90%). The “herbicidal effect on K: Italian ryegrass” value [22, 32] was 5 (Herbicidal rate of 90% or more (almost completely withered)), the “herbicidal effect on L: windgrass” value [23, 32] was 5 (Herbicidal rate of 90% or more (almost completely withered)) and the “herbicidal effect on M: velvetleaf” value [24, 32] was 4 (Herbicidal rate of 70% or more and less than 90%). The “herbicidal effect on N: redroot pigweed” value [25, 32] was 5 (Herbicidal rate of 90% or more (almost completely withered)), the “herbicidal effect on O: lambsquarters” value [26, 32] was 4 (Herbicidal rate of 70% or more and less than 90%) and the “herbicidal effect on P: chickweed” value [27, 32] was 5 (Herbicidal rate of 90% or more (almost completely withered)). The “herbicidal effect on Q: false cleavers” value [28, 32] was 3 (Herbicidal rate of 40% or more and less than 70%) and the “herbicidal effect on R: persian speedwell” value [29, 32] was 5 (Herbicidal rate of 90% or more (almost completely withered)).
